Key:
Format in all cases: cell-based
[1] = system: Sox9; assay: Real-Time PCR gene expression in human chondrocytes: Sox9; settings: 1% w/v, ratio to untreated control
Procedure: To evaluate the biological effects of chondroitin on human chondrocyte cultures, the expression of a set of genes considered key to establishing the phenotype, and suitable markers for evaluating the quality of the tissue generated, was determined. The study was conducted on chondrocytes prepared from human cartilage, as reported in Example 2, the cells being grown in the presence of chondroitin or chondroitin sulphate. Using a standard procedure, 5*10^4 cells per well were seeded in a 24-well multiwell plate. The chondrocytes were grown in DMEM containing 1% w/v of chondroitin or chondroitin sulphate (endotoxin content ≤0.1 EU/mg). The cells were stimulated for 4, 7 and 10 days (Ishak et al., International J. of Pediatric Otorhinolaryngology, 2011, 75: 835-840), after which the RNA was extracted with Trizol Reagent, as described in the kit manual (Life Technologies Ltd, Milan, Italy). A qualitative morphological analysis of the cell culture was also conducted at the various times, in parallel with RNA extraction, by observing the corresponding samples at 4, 7 and 10 days under the optical microscope. The cells seeded at the three different times were observed under the microscope, and the images that best represented the cell growth conditions were acquired using a time-lapse videomicroscopy workstation. After RNA extraction, reverse transcription was performed with a total of 1 μg RNA and then with amplification by Real-Time PCR of genes which are specific markers for chondrocytes (Table 3).
Genes connected with matrix production, such as aggrecan, type I collagen, type II collagen and the Sox9 gene, the expression of which is closely correlated with the expression of type II collagen, were analysed as specific markers for differentiation and characterisation of chondrocytes. (Akiyama H., Mod Rheumatol., 2008, 18(3): 213-9; Yang et al., J. of Orthopaedic Res. 2011).
The gene expression of said markers on human chondrocytes cultured in basic medium (control) and with chondroitin treatment (C) or chondroitin sulphate treatment (CS) was analysed on cell cultures in the second and third growth phases.
The results of the gene expression analysis were reported as the average of at least 3 independent experiments for tests conducted in the presence of C or CS, on cells in phases 2 and 3.

[2] = system: primary cultures of human chondrocytes; assay: Chondrocyte proliferation test (time-lapse videomicroscopy); settings: 1% w/v
Description: Primary cultures of human chondrocytes isolated from healthy human cartilage samples obtained during rhinoplasty operations were used as model system. The tissue fragments just removed in the operating theatre were immersed in an 0.9% w/w NaCl saline solution and rapidly transferred to the laboratory for extraction of chondrocytes. Operating in sterile conditions under laminar-flow hood, the tissue sample was transferred to a petri dish where it was cut into small pieces using sterile tweezers and scalpels. The pieces of cartilage were then immersed in 0.01M phosphate buffer pH 7.4 (PBS) containing type 1 collagenase (3 mg/mL), dispase (4 mg/mL) and gentamicin (5 μL/mL of an 80 mg/mL solution) to ensure sterility during enzymatic digestion. The pieces were left to incubate overnight in a Falcon tube at 37° C., under stirring. After 16-18 h the solution was filtered through a 70 μm filter, transferring the parts adhering to the Falcon tube onto the filter and washing with 7-8 mL of DMEM 10% FBS. The filtrate was centrifuged at 1,500 rpm for 7 min, the supernatant was removed and the pellet was suspended in 10 mL of DMEM 10% FBS containing fungizone (5 μL/mL of an 80 mg/mL solution) and gentamicin (5 μL/mL of an 80 mg/mL solution). The cell suspension thus obtained was plated in a 25 cm^2 flask and incubated at 37° C. in a 5% CO2 atmosphere, with changes of medium every 2 or 3 days until complete confluency of the cell culture. The cells, which have the characteristic appearance of chondrocytes (small swollen cells with a slightly elongated shape), were detached from the base of the flask, counted and incubated again in fresh medium. Starting with 0.4 g of cartilage, about 2*10^6 cells were generally obtained in the second growth phase. Knowledge of the number of growth cycles to which the culture has previously been subjected is of crucial importance for primary cells; especially in the case of chondrocytes a cell differentiation process is observed wherein, as the growth phases proceed, the cells increasingly present an appearance morphologically similar to fibroblasts. For this reason the entire study is conducted with primary chondrocyte cultures at the 2nd-4th growth phase.
The effect of chondroitin on chondrocyte proliferation was evaluated with time-lapse videomicroscopy, as described in Example 1. The study was performed comparatively with chondrocytes stimulated with chondroitin sulphate, using non-stimulated chondrocytes as control system. 20*10^3 cells were seeded per well of a 24-well multiwell plate. The cells were treated with chondroitin or chondroitin sulphate with an endotoxin content ≤0.1 EU/mg at a concentration of 1% w/v in DMEM 10% FBS; in the controls, the cells were seeded in DMEM 10% FBS. The experiments were conducted in triplicate and analysed for a total time ranging between 96 and 120 h. Image analysis, conducted with Image Pro-plus 5.1 analysis software, allowed a precise number of cells to be obtained with a manual count at times pre-set by the operator, in order to construct a growth curve over time. The data analysis indicates (Table 2) that the growth of the cells treated with chondroitin was better than that of the untreated cells and the cells treated with chondroitin sulphate.

[3] = system: Enterococcus faecalis strain ATCC 19433; assay: Inhibition of bacterial growth on plate, E. faecalis
Procedure: The antibacterial activity of chondroitin (C) and chondroitin sulphate (CS) on the growth of Escherichia coli ATCC 25922 and Enterococcus faecalis ATCC 19433 on a solid medium in vitro was examined. The concentrations explored ranged from 40 μg/mL to 40 mg/mL of C or CS as final concentrations in the medium. Brain-heart infusion (Oxoid) was used as culture medium for E. coli ATCC 25922, and M17 (Oxoid) for E. faecalis ATCC 19433; both media were adjusted to the same pH and the same osmolarity before being solidified by adding agar and cooled. 100 μL of a bacterial suspension containing 10^2, 10^3 or 10^4 bacteria/mL was plated as inoculum. […] The number of colonies was then counted on control plates in the absence of the substances under study and on plates at the various concentrations of C and CS. The data from the experiments for the two micro-organisms, conducted in triplicate for each of the conditions, are shown in tables 7 and 8.

[4] = 40 μg/mL, 10 bacteria inoculated
[5] = 40 μg/mL, 100 bacteria inoculated
[6] = 40 μg/mL, 1000 bacteria inoculated
[7] = 400 μg/mL, 10 bacteria inoculated
[8] = 400 μg/mL, 100 bacteria inoculated
[9] = 400 μg/mL, 1000 bacteria inoculated
[10] = 4 mg/mL, 10 bacteria inoculated
[11] = 4 mg/mL, 100 bacteria inoculated
[12] = 4 mg/mL, 1000 bacteria inoculated
[13] = 40 mg/mL (maximum concentration)
[14] = 40 mg/mL, 10 bacteria inoculated
[15] = 40 mg/mL, 100 bacteria inoculated
[16] = 40 mg/mL, 1000 bacteria inoculated

| Substance | Fold Expression, Sox9 ([1]; phase II, 4 g) | Fold Expression, Sox9 ([1]; phase II, 7 g) | Fold Expression, Sox9 ([1]; phase II, 10 g) | Fold Expression, Sox9 ([1]; phase III, 4 g) | Fold Expression, Sox9 ([1]; phase III, 7 g) | Fold Expression, Sox9 ([1]; phase III, 10 g) | Number of chondrocytes ([2]; time 0 h) [Cells × 10^4] | Number of chondrocytes ([2]; time 20 h) [Cells × 10^4] | Number of chondrocytes ([2]; time 40 h) [Cells × 10^4] | Number of chondrocytes ([2]; time 60 h) [Cells × 10^4] | Number of chondrocytes ([2]; time 80 h) [Cells × 10^4] | Number of chondrocytes ([2]; time 100 h) [Cells × 10^4] | CFU after 36 h [3, 4] [CFU] | CFU after 36 h [3, 5] [CFU] | CFU after 36 h [3, 6] [CFU] | Inhibition factor ([3]; 400 μg/mL) | Qualitative valuation of inhibition ([3]; 400 μg/mL) | CFU after 36 h [3, 7] [CFU] | CFU after 36 h [3, 8] [CFU] | CFU after 36 h [3, 9] [CFU] | further results |
| --- | --- | --- | --- | --- | --- | --- | --- | --- | --- | --- | --- | --- | --- | --- | --- | --- | --- | --- | --- | --- | --- |
| chondroitin | 1.87 ± 0.85 | 1.16 ± 0.15 | 1.78 ± 0.75 | 3.68 ± 0.44 | 1.09 ± 0.01 | 0.53 ± 0.02 | 7.0 ± 0.7 | 10.2 ± 0.9 | 15.3 ± 1.3 | 22.0 ± 1.8 | 27.0 ± 2.0 | 32.0 ± 2.1 | 8 ± 2 | 82 ± 5 | 870 ± 70 | 2 | significant | 5 ± 1 | 55 ± 6 | 480 ± 30 | Inhibition factor ([3]; 40 μg/mL): 1.2; Qualitative valuation of inhibition ([3]; 40 μg/mL): mild; Inhibition factor ([3]; 4 mg/mL): 6.1; Qualitative valuation of inhibition ([3]; 4 mg/mL): significant; CFU after 36 h [3, 10]: 0 CFU; CFU after 36 h [3, 11]: 18 ± 4 CFU; CFU after 36 h [3, 12]: 150 ± 4 CFU; Qualitative valuation of inhibition ([3]; 40 mg/mL): high; Inhibition factor [3, 13]: 50; CFU after 36 h [3, 14]: 0 CFU; CFU after 36 h [3, 15]: 0 CFU; CFU after 36 h [3, 16]: 20 ± 2 CFU |
| chondroitin sulphate [CS, reference compound] | 2.2 ± 1.20 | 0.86 ± 0.31 | 0.53 ± 0.02 | 2.6 ± 1.21 | 1.41 ± 0.04 | 0.81 ± 0.05 | 7.0 ± 0.5 | 10.0 ± 1.2 | 14.0 ± 1.8 | 18.0 ± 1.6 | 21.8 ± 1.7 | 25.0 ± 2.5 | 8 ± 2 | 90 ± 7 | 960 ± 70 | 1.3 | mild | 7 ± 1 | 80 ± 5 | 780 ± 70 | Inhibition factor ([3]; 4 mg/mL): 2; Qualitative valuation of inhibition ([3]; 4 mg/mL): significant; CFU after 36 h [3, 10]: 5 ± 1 CFU; CFU after 36 h [3, 11]: 48 ± 4 CFU; CFU after 36 h [3, 12]: 520 ± 30 CFU; Qualitative valuation of inhibition ([3]; 40 mg/mL): high; Inhibition factor [3, 13]: 7.4; CFU after 36 h [3, 14]: 0 CFU; CFU after 36 h [3, 15]: 15 ± 2 CFU; CFU after 36 h [3, 16]: 120 ± 10 CFU |

From patent publication US10206944B2, “Chondroitin for use in medicine” (ALTERGON S.A., priority 2012, dated 2019)
